Data from patent publication US20060069132A1, “Azolecarboxamide herbicides” (priority 2004, published 2006).

Assays:
large crabgrass = assay: Test B pre-/postemergence herbicide test; assay type: in vivo, Digitaria sanguinalis; conditions: for Plant response rating (0 to 100 scale), Crabgrass, Large: 0 is no effect, preemergence
In short: (§1)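 Herbicidal effect was judged by eye on a 0–100 scale after plants stood 13 to 15 days in the greenhouse following pre- or postemergence treatment with surfactant-containing formulations.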

wild oat = assay: Test B postemergence herbicide test; assay type: in vivo, Avena fatua
In short: (§2)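 Scale 0–100: zero equals no visible effect, 100 complete control, judged by eye relative to controls. Timing: 13 to 15 days in greenhouse post-treatment. Growth stage at spraying: two leaves (paddy) or one to four leaves, 2–18 cm (postemergence).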

corn = assay: Test B pre-/postemergence herbicide test; assay type: in vivo, Zea mays; conditions: for Plant response rating (0 to 100 scale), Corn: 0 is no effect, preemergence
In short: as §1

velvetleaf = assay: Test B pre-/postemergence herbicide test; assay type: in vivo, Abutilon theophrasti; conditions: for Plant response rating (0 to 100 scale), Velvetleaf: 0 is no effect, 100 is complete control, preemergence
In short: as §1

wheat = assay: Test B postemergence herbicide test; assay type: in vivo, Triticum aestivum; design: key to Wheat plant response rating: 0 = no effect, 100 = complete control
In short: as §2

rice = assay: Test B flooded paddy test; assay type: in vivo, Oryza sativa; conditions: scale 0 to 100 (0 no effect, 100 complete control)
In short: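 Treated at 2-leaf (paddy) or 1–4-leaf, 2–18 cm (postemergence); greenhouse 13–15 d; visual score vs control, 0 none to 100 complete control; dash = not tested.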

pigweed = assay: Test B pre-/postemergence herbicide test; assay type: in vivo, Amaranthus retroflexus; conditions: for Plant response rating (0 to 100 scale), Pigweed: 0 is no effect, 100 is complete control, preemergence
In short: as §1

barnyardgrass [1] = assay: Test B pre-/postemergence herbicide test; assay type: in vivo, Echinochloa crus-galli; conditions: for Plant response rating (0 to 100 scale), Barnyardgrass: 0 is no effect, preemergence
In short: (§3)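 Test chemicals in a non-phytotoxic solvent mixture with surfactant were applied preemergence to seeded species and postemergence to plants 2-18 cm tall (1- to 4-leaf stage); rice and barnyardgrass were also tested in a flooded paddy at the 2-leaf stage. Visual rating versus controls after 13-15 days in greenhouse, scale 0 (no effect) to 100 (complete control).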

giant foxtail = assay: Test B pre-/postemergence herbicide test; assay type: in vivo, Setaria faberi; conditions: for Plant response rating (0 to 100 scale), Foxtail, Giant: 0 is no effect, preemergence
In short: as §1

barnyardgrass [2] = assay: Test B flooded paddy test; assay type: in vivo, Echinochloa crus-galli; conditions: scale 0 to 100 (0 no effect, 100 complete control)
In short: (§4)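 Paddy species grown to the 2-leaf stage under flooding; blackgrass sprayed postemergence at 2–18 cm (1- to 4-leaf stage). Plants kept in a greenhouse for 13 to 15 days, then visually rated against controls on 0 (no effect) to 100 (complete control).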

[3] = tested on: small flower umbrella sedge; assay: Test B flooded paddy test; assay type: in vivo, Cyperus difformis; conditions: scale 0 to 100 (0 no effect, 100 complete control)
In short: as §4

Surinam grass = assay: Test B pre-/postemergence herbicide test; assay type: in vivo, Urochloa decumbens; conditions: for Plant response rating (0 to 100 scale), Surinam Grass: 0 is no effect, 100 is complete control, preemergence
In short: as §1

morningglory = assay: Test B pre-/postemergence herbicide test; assay type: in vivo, Ipomoea coccinea; conditions: for Plant response rating (0 to 100 scale), Morningglory: 0 is no effect, 100 is complete control, preemergence
In short: as §3

lambsquarters = assay: Test B pre-/postemergence herbicide test; assay type: in vivo, Chenopodium album; conditions: for Plant response rating (0 to 100 scale), Lambsquarters: 0 is no effect, 100 is complete control, preemergence
In short: as §1

ducksalad = assay: Test B flooded paddy test; assay type: in vivo, Heteranthera limosa; conditions: scale 0 to 100 (0 no effect, 100 complete control)
In short: as §4

blackgrass = assay: Test B postemergence herbicide test; assay type: in vivo, Alopecurus myosuroides
In short: as §4

cocklebur = assay: Test B pre-/postemergence herbicide test; assay type: in vivo, Xanthium strumarium; conditions: for Plant response rating (0 to 100 scale), Cocklebur: 0 is no effect, preemergence
In short: as §3

[4] = 125 g ai/ha, 100 is complete control
[5] = Postemergence, 500 g ai/ha, scale 0 (no effect) to 100 (complete control)
[6] = postemergence, 125 g ai/ha, scale 0 to 100
[7] = 500 g ai/ha, scale 0 to 100, 0 no effect, 100 complete control, preemergence
[8] = 125 g ai/ha, visual rating, scale 0 (no effect) to 100 (complete control), postemergence
[9] = postemergence, 500 g ai/ha, scale 0 to 100, 0 is no effect, 100 is complete control
[10] = Postemergence, 250 g ai/ha, scale 0 (no effect) to 100 (complete control)
[11] = postemergence, 62 g ai/ha, scale 0 to 100
[12] = 1000 g ai/ha, visual rating, 13 to 15 days

CC(C)(C)n1nc(Br)c(C(=O)Nc2cccc(C(=O)N3CC=CC3)c2)n1 [Compound 433]
100: Plant response rating (0 to 100 scale), Pigweed (pigweed; 125 g ai/ha)
70: Pigweed plant response rating (pigweed; [5]) | Sedge, Umbrella plant response rating ([3]; 125 g ai/ha) | Plant response rating (0 to 100 scale), Lambsquarters (lambsquarters; 125 g ai/ha)
60: Oat, Wild plant response rating (wild oat; [5]) | Plant response rating (0 to 100 scale), Foxtail, Giant (giant foxtail; [4]) | Ducksalad plant response rating (ducksalad; 125 g ai/ha)
50: Oat, Wild plant response rating (wild oat; [6]) | Velvetleaf plant response rating (velvetleaf; [5]) | Wheat plant response rating (wheat; [7]) | Wheat plant response rating (wheat; [5]) | Pigweed plant response rating (pigweed; [6]) | Plant response rating (0 to 100 scale), Barnyardgrass (barnyardgrass [1]; [4]) | Morningglory plant response rating (morningglory; [6])
30: Crabgrass, Large plant response rating (large crabgrass; [5]) | Corn plant response rating (corn; [5]) | Foxtail, Giant plant response rating (giant foxtail; [6]) | Barnyardgrass plant response rating (barnyardgrass [2]; 125 g ai/ha) | Surinam Grass plant response rating (Surinam grass; [5]) | Blackgrass plant response rating (blackgrass; [6])
40: Plant response rating (0 to 100 scale), Velvetleaf (velvetleaf; 125 g ai/ha) | Wheat plant response rating (wheat; [6]) | Foxtail, Giant plant response rating (giant foxtail; [5]) | Plant response rating (0 to 100 scale), Morningglory (morningglory; 125 g ai/ha) | Lambsquarters plant response rating (lambsquarters; [6]) | Blackgrass plant response rating (blackgrass; [5]) | Cocklebur plant response rating (cocklebur; [6])
90: Plant response rating (0 to 100 scale), Crabgrass, Large (large crabgrass; [4]) | Cocklebur plant response rating (cocklebur; [5])
0: Rice plant response rating (rice; 125 g ai/ha)
20: Crabgrass, Large plant response rating (large crabgrass; [6]) | Corn plant response rating (corn; [6]) | Barnyardgrass plant response rating (barnyardgrass [1]; [5]) | Plant response rating (0 to 100 scale), Surinam Grass (Surinam grass; 125 g ai/ha) | Surinam Grass plant response rating (Surinam grass; [6])
80: Morningglory plant response rating (morningglory; [5]) | Lambsquarters plant response rating (lambsquarters; [5])
10: Plant response rating (0 to 100 scale), Corn (corn; [4]) | Velvetleaf plant response rating (velvetleaf; [6]) | Barnyardgrass plant response rating (barnyardgrass [1]; Postemergence, 125 g ai/ha, scale 0 (no effect) to 100 (complete control)) | Plant response rating (0 to 100 scale), Cocklebur (cocklebur; [4])

C#CCNC(=O)c1cccc(NC(=O)c2nn(C(C)C)nc2CC)c1 [Compound 379]
0: Oat, Wild plant response rating (wild oat; [8]) | Oat, Wild plant response rating (wild oat; [5]) | Plant response rating (0 to 100 scale), Corn (corn; [4]) | Corn plant response rating (corn; [8]) | Corn plant response rating (corn; [9]) | Velvetleaf plant response rating (velvetleaf; [8]) | Wheat plant response rating (wheat; [8]) | Wheat plant response rating (wheat; [5]) | Plant response rating (0 to 100 scale), Barnyardgrass (barnyardgrass [1]; [4]) | Barnyardgrass plant response rating (barnyardgrass [1]; [8]) | Barnyardgrass plant response rating (barnyardgrass [1]; [9]) | Plant response rating (0 to 100 scale), Foxtail, Giant (giant foxtail; [4]) | Plant response rating (0 to 100 scale), Surinam Grass (Surinam grass; 125 g ai/ha) | Plant response rating (0 to 100 scale), Lambsquarters (lambsquarters; 125 g ai/ha) | Blackgrass plant response rating (blackgrass; [8]) | Blackgrass plant response rating (blackgrass; [9]) | Plant response rating (0 to 100 scale), Cocklebur (cocklebur; [4]) | Cocklebur plant response rating (cocklebur; [8])
40: Barnyardgrass plant response rating (barnyardgrass [2]; 1000 g ai/ha) | Morningglory plant response rating (morningglory; [5])
20: Plant response rating (0 to 100 scale), Crabgrass, Large (large crabgrass; [4]) | Wheat plant response rating (wheat; [7]) | Plant response rating (0 to 100 scale), Pigweed (pigweed; 125 g ai/ha) | Pigweed plant response rating (pigweed; [8]) | Surinam Grass plant response rating (Surinam grass; [5]) | Morningglory plant response rating (morningglory; [8]) | Lambsquarters plant response rating (lambsquarters; [8])
10: Crabgrass, Large plant response rating (large crabgrass; [8]) | Crabgrass, Large plant response rating (large crabgrass; [9]) | Plant response rating (0 to 100 scale), Velvetleaf (velvetleaf; 125 g ai/ha) | Velvetleaf plant response rating (velvetleaf; [5]) | Foxtail, Giant plant response rating (giant foxtail; [8]) | Foxtail, Giant plant response rating (giant foxtail; [9]) | Surinam Grass plant response rating (Surinam grass; [8]) | Plant response rating (0 to 100 scale), Morningglory (morningglory; 125 g ai/ha) | Cocklebur plant response rating (cocklebur; [9])
50: Rice plant response rating (rice; 1000 g ai/ha) | Pigweed plant response rating (pigweed; [5]) | Lambsquarters plant response rating (lambsquarters; [5])
70: Sedge, Umbrella plant response rating ([3]; 1000 g ai/ha) | Ducksalad plant response rating (ducksalad; 1000 g ai/ha)

CCOC(=O)c1ccc(F)c(NC(=O)c2cc(CC(C)C)nn2CC)c1 [Compound 72]
30: Oat, Wild plant response rating (wild oat; [10])
20: Oat, Wild plant response rating (wild oat; [11])
50: Blackgrass plant response rating (blackgrass; [10])
10: Wheat plant response rating (wheat; [10]) | Wheat plant response rating (wheat; [11]) | Lambsquarters plant response rating (lambsquarters; [10])
40: Blackgrass plant response rating (blackgrass; [11])
0: Crabgrass, Large plant response rating (large crabgrass; [10]) | Crabgrass, Large plant response rating (large crabgrass; [11]) | Corn plant response rating (corn; [10]) | Corn plant response rating (corn; [11]) | Velvetleaf plant response rating (velvetleaf; [10]) | Velvetleaf plant response rating (velvetleaf; [11]) | Wheat plant response rating (wheat; 250 g ai/ha, scale 0 to 100, 0 no effect, 100 complete control, preemergence) | Rice plant response rating (rice; [12]) | Pigweed plant response rating (pigweed; [10]) | Pigweed plant response rating (pigweed; [11]) | Barnyardgrass plant response rating (barnyardgrass [1]; [10]) | Barnyardgrass plant response rating (barnyardgrass [1]; [11]) | Foxtail, Giant plant response rating (giant foxtail; [10]) | Foxtail, Giant plant response rating (giant foxtail; [11]) | Barnyardgrass plant response rating (barnyardgrass [2]; [12]) | Sedge, Umbrella plant response rating [3, 12] | Surinam Grass plant response rating (Surinam grass; [10]) | Surinam Grass plant response rating (Surinam grass; [11]) | Morningglory plant response rating (morningglory; [10]) | Morningglory plant response rating (morningglory; [11]) | Lambsquarters plant response rating (lambsquarters; [11]) | Ducksalad plant response rating (ducksalad; [12]) | Cocklebur plant response rating (cocklebur; [10]) | Cocklebur plant response rating (cocklebur; [11])
